The values that follow come from US10383873B2, “Method and kits for identifying of CDK9 inhibitors for the treatment of cancer” (Memorial Sloan-Kettering Cancer Center, priority 2014, dated 2019).

Structures are written as SMILES.

Assay [1] relates to human and murine cell lines. Briefly: Comparison of inhibitor IC50 with anti-proliferative effects of CDK9 shRNAs. It counts as cell-based. The conditions noted are these: IC50 compared with competitive proliferation assays. The source says:
(FIG. 3A) Scatter plot illustrating the correlation between anti-proliferative effects of CDK9 shRNAs and the IC50 of PHA-767491 in six human cell lines. The correlation and p values of three additional CDK9 inhibitors and one DNA replication inhibitor (aphidicolin) are also shown in the right panel. The survival is defined as the average of the survival ratio of two shRNAs in competitive proliferation assay. (FIG. 3B) Proliferation rates of PHA-767491-treated human cells, calculated by measuring the change in viable cell number after 72 h in culture and fitting data to an exponential growth curve. Results were normalized to the proliferation rate of vehicle (H2O) treated cells, set to 1. Values are mean+/−SD of three independent replicates. (FIG. 3C) Summary of PHA-767491 IC50 values of human cell lines in FIG. 3A. […]
Competitive proliferation assays using shRNAs in TRMPV-Neo vector (with miR-30 or miR-E backbone) were performed as described previously (Zuber J, et al. Nature (2011) 478: 524-528). […] Proliferation rates were calculated by dividing cell concentration at 72 h and cell concentration at 0 h, divided by 72. Relative proliferation rates were calculated by normalizing to the rate of vehicle-treated cells. Population doublings were calculated by calculating log 2 (cells at end point/cells at initial point) divided by time in days. […]

In another assay the test system is SNU-475 cells. Description: Proliferation assay in SNU-475 cells with enforced MYC expression. Format: cell-based, human. The conditions noted are these: MYC levels equivalent to HepG2.
In a further assay the test system is Alexander cells. Description: Orthotopic Alexander HCC xenograft, bioluminescent imaging and Ki67. The conditions noted are these: low MYC expressing Alexander; same treatment. It counts as in vivo, mice. The method, then: (§1) All mouse experiments were approved by the Memorial Sloan-Kettering Cancer Center (MSKCC) Animal Care and Use Committee (protocol no. 11-06-011). Mice were maintained under specific pathogen-free conditions, and food and water were provided ad libitum. For conditional RNAi experiments in vivo, Tet-on murine HCC MP1 cells were transduced with luciferase-hygro and TRMPV-Neo-miR-E shRNA constructs. […] For whole-body bioluminescent imaging, mice were intraperitoneally injected with 50 mg/kg D-Luciferin (Goldbio), and after 10 min, analysed using an IVIS Spectrum system (Caliper LifeSciences). Quantification was performed using Living Image software (Caliper LifeSciences) with standardized round regions of interests covering the mouse trunk and extremities. […]
(§2) Liver tissues and cell pellets were lysed in Laemmli buffer or protein lysis buffer (200 mM NaCl, 0.2% NP40, 50 mM Tris at pH 7.5, 1% Tween20, protease and phosphatases inhibitors) using a tissue homogenizer. […] The abundance of β-actin was monitored to ensure equal loading. Images were analyzed using the AlphaView software (ProteinSimple). […]

Assay [2] relates to human HCC cell lines. The conditions noted are these: previous findings; cited from earlier work.
The subject of the next assay is HepG2 cells. Briefly: Orthotopic HepG2 HCC xenograft, bioluminescent imaging and Ki67. The note with it: high MYC expressing HepG2; 50 mg/kg twice a day. Format: in vivo, mice. The procedure: as §1, §2
The subject of assay [3] is MYC-overexpressing Alexander cells. Description: Proliferation assay in Alexander cells with enforced MYC expression. Format: cell-based, human. The conditions noted are these: ectopic MYC expression versus empty vector.
Another assay has as its target CDK9 (Homo sapiens, UniProt P50750). The conditions noted are these: versus other available inhibitors.
The subject of a further assay is Ser2 of RNA pol II. Briefly: Immunoblot of Pol II Ser2 phosphorylation in tumors. It counts as in vivo, mice. (A western blot detects proteins with antibodies after separation by electrophoresis.)
Assay [4] has as its system non-transformed cell lines. Description: Proliferation assay in non-transformed cell lines. Format: cell-based. The note with it: two non-transformed cell lines, compared with cancer cell lines.
Protocol: Dead cells were excluded using propidium iodide (PI) staining to score cells with sub-2N DNA content. Measurements of cell concentration were performed on a Guava Easycyte (Millipore), gating only viable cells (FSC/SSC/PI-). Proliferation rates were calculated by dividing cell concentration at 72 h and cell concentration at 0 h, divided by 72. Relative proliferation rates were calculated by normalizing to the rate of vehicle-treated cells. Population doublings were calculated by calculating log 2 (cells at end point/cells at initial point) divided by time in days.
Assay [5] deals with human HCC cell lines. Briefly: Cell cycle analysis (BrdU/7-AAD staining) after 48 hours of treatment. It counts as cell-based. The note with it: PHA-767491 treatment.
Protocol: (FIG. 3E) Representative flow cytometry plots showing cell cycle analysis (BrdU+7-AAD+ double staining) of cells after 48 hours of PHA-767491 treatment.

Sequence of CDK9 (P50750 whole entry, species assumed): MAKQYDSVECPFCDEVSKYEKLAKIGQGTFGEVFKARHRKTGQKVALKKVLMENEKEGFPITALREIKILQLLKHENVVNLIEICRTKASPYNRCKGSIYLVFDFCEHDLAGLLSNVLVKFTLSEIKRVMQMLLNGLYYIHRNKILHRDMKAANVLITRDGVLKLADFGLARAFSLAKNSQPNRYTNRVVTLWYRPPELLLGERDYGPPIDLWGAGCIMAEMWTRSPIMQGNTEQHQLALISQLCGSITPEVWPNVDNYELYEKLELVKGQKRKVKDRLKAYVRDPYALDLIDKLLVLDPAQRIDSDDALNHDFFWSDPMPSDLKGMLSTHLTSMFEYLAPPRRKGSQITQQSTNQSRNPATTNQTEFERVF
Sequence of CDK9 (O60563 whole entry partner, species assumed): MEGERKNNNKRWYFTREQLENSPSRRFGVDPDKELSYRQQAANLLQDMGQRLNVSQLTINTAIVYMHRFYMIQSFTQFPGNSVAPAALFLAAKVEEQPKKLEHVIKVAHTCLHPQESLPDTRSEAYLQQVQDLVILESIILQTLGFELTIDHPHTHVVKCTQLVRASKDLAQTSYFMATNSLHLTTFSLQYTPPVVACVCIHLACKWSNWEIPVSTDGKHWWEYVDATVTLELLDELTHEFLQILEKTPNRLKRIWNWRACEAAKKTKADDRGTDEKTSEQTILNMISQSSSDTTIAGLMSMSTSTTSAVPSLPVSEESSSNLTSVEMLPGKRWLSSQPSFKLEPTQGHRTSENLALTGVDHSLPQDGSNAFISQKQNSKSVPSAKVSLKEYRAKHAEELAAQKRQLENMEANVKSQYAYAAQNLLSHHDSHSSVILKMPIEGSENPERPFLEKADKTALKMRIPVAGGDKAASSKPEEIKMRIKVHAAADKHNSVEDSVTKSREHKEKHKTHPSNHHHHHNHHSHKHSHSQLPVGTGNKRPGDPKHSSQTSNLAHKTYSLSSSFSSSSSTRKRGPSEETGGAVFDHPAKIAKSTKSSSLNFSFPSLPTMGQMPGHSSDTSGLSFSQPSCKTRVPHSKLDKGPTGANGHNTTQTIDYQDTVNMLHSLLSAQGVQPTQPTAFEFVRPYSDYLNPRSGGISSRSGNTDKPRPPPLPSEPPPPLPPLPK
Description for Ser2 of RNA pol II: Mice were maintained under specific pathogen-free conditions, and food and water were provided ad libitum. […] One million murine or human HCC cells were ortothopically transplantated into female nude recipient mice (NCR nu/nu, purchased from Charles River laboratories and Harlan Laboratories), as described previously (Saborowski et al. 2013 Proc Natl Acad Sci USA. 2013 Nov. 26; 110(48):19513-8. doi: 10.1073/pnas.1311707110.). […] For PHA-767491 treatment trials, PHA-767491 was solved in ultrapure distilled water, filtered by 0.2 M filters, and diluted to a final concentration of 5 mg/ml. Mice were orally given twice daily PHA-767491 (50 mg/kg) or a similar volume of vehicle (water). The sick animals were sacrificed and liver tumors were used for further analysis. Liver tumors were excised, formalin-fixed and paraffin-embedded, frozen, or embedded in OCT.
Liver tissues and cell pellets were lysed in Laemmli buffer or protein lysis buffer (200 mM NaCl, 0.2% NP40, 50 mM Tris at pH 7.5, 1% Tween20, protease and phosphatases inhibitors) using a tissue homogenizer. Equal amounts of protein were separated on 12% SDS-polyacrylamide gels and transferred to PVDF membranes. […] Images were analyzed using the AlphaView software (ProteinSimple). Detection in immunoblots was performed using antibodies for CDK9 (Santa Cruz Biotechnology), MCM6 (Santa Cruz Biotechnology), PSMB2 (Santa Cruz Biotechnology), β-Actin (AC-15, Sigma), p53 (Leica Biosystems), MYC (Abcam), CCNT1 (Santa Cruz Biotechnology), phopho-Ser2 RNA Pol II (Cell Signaling), and RNA Pol II (Santa Cruz Biotechnology).

For the compound `C[C@@]1(CO)[C@H](O)CC[C@@]2(C)[C@H]1CC[C@H]1C[C@@H]3C[C@@]12CC[C@]3(O)CO` [aphidicolin], in assay [1], the “similarity of activity spectrum to CDK9 shRNAs” value is given as “did not mimic the effects of CDK9 shRNAs”.
With `O=C1NCCc2[nH]c(-c3ccncc3)cc21` [PHA-767491], the “sensitivity compared with HepG2 cells” value with SNU-475 cells is “produced a similar sensitivity”. Also, the “effect on tumor-cell proliferation and tumor growth” value with Alexander cells is “little if any effect”. Also, in the assay with human HCC cell lines [2], the “p53 dependence of proliferation inhibition” value was “inhibits cancer cell proliferation through p53-independent mechanisms”. In the assay with HepG2 cells, the tumor growth result was “substantial inhibition of tumor growth and some tumor regressions”; the tumor-cell proliferation result is given as “decreased tumor-cell proliferation”. Also, in [3], the “sensitivity to CDK9 inhibition” value is recorded as “became more sensitive”. Besides, the “selectivity for CDK9” value on CDK9 is given as “more selective for CDK9 than other available inhibitors”. For the same compound, the “similarity of activity spectrum to CDK9 shRNAs” value in assay [1] was “most closely recapitulated shRNA-mediated CDK9 inhibition”. Besides, the “Pol II Ser2 phosphorylation in tumors” value in the assay with Ser2 of RNA pol II (human HCC xenografts, 50 mg/kg twice a day, 50 mg/kg) is given as “decrease in the levels of phosphorylation of Ser2 of RNA pol II”. For the same compound, the “Pol II Ser2 phosphorylation in Alexander tumors” value in the assay with Ser2 of RNA pol II (low MYC expressing Alexander xenografts) is listed as “detectable decrease in Pol II Ser2 phosphorylation”. In addition, the “total RNA pol II levels in tumors” value in the assay with Ser2 of RNA pol II (two representative tumors) is “mild changes in total RNA pol II levels”. Also, the sensitivity to treatment result in assay [4] is listed as “consistently less sensitive”. For the same compound, in the assay with human HCC cell lines [5], the cell cycle effect entry is on record as “triggered cell-cycle arrest”.
